Results taken from patent publication US20260263593A1, “ALLERGY ANTIGEN AND EPITOPE THEREOF” (HOYU CO., LTD., priority 2018, published 2026).

Test system: IgE antibody present in the serum of a shrimp-allergic patient
Experiment: Epitope mapping (1): array of overlapping 15-amino-acid peptides, chemiluminescence
Format: binding, human
Conditions: 15-amino-acid peptide array; serum of 37 patients; difference from N2nd value of 5 non-shrimp-allergic subjects at least 35,000
Experimental: Epitope mapping was carried out using a library of overlapping peptides (length: 15 amino acids) corresponding to the amino acid sequences identified as allergy components of shrimp and the amino acid sequence of arginine kinase. Specifically, the library of overlapping peptides was prepared on the basis of the amino acid sequences of SEQ ID NOs: 117, 141, 146, 2, 45, 87, 276, 161, 230, 179, 362, 381, 399, 421, 455, 481, 486, 520, 541, 300 and 306, and arginine kinase.
The peptides to be synthesized were shifted by 10 amino acids.
For preparation of peptide arrays, the Intavis CelluSpots™ technique was used. Specifically, the peptide arrays were prepared by the following procedure: (1) synthesizing peptides of interest on amino-modified cellulose disks using an automated chemical synthesis apparatus (Intavis MultiPep RS), (2) dissolving the amino-modified cellulose disks to obtain a cellulose-bound peptide solution, and (3) spotting the cellulose-bound peptides onto coated glass slides. The details of each procedure are as described below.
Peptide synthesis was carried out in incremental steps through 9-fluorenylmethoxycarbonyl (Fmoc) chemical reaction on amino-modified cellulose disks in 384-well synthesis plates. Specifically, amino acids in which a Fmoc group is bonded to an amino group were activated in a solution of N,N′-diisopropylcarbodiimide (DIC) and 1-hydroxybenzotriazole (HOBt) in dimethylformamide (DMF) and added dropwise to the cellulose disks so that the Fmoc group-bound amino acids were bound to the amino groups on the cellulose disks (coupling). Unreacted amino groups were capped with acetic anhydride and washed with DMF. Furthermore, the Fmoc groups were eliminated from the amino groups of the amino acids bound to the amino groups on the cellulose disks by treatment with piperidine and washing with DMF. The amino acids bound to the amino groups on the cellulose disks were repetitively subjected to the coupling, the capping, and the Fmoc group elimination described above to elongate the amino terminus for peptide synthesis.
The peptides-bound cellulose disks of interest obtained above in the subsection titled “(1) Synthesis of peptide” were transferred to 96-well plates and treated with a side chain deprotection mixed solution of trifluoroacetic acid (TFA), dichloromethane, triisopropylsilane (TIPS), and water for deprotection of amino acid side chains. Then, the deprotected cellulose-bound peptides were dissolved in a mixed solution of TFA, trifluoromethanesulfonic acid (TFMSA), TIPS, and water and precipitated in tetrabutyl methyl ether (TBME), and the precipitate was resuspended in dimethyl sulfoxide (DMSO) and mixed with a mixed solution of NaCl, sodium citrate, and water to obtain a peptide solution for slide spotting.
The peptide solution for slide spotting obtained above in the subsection titled “(2) Dissolution of amino-modified cellulose disk” was spotted onto Intavis CelluSpots™ slides using Intavis Slide Spotting Robot, and the slides were dried to prepare peptide arrays.
The presence or absence of binding, to each peptide fragment, of an IgE antibody present in the serum of a shrimp-allergic patient was measured through antigen-antibody reaction using the peptide arrays. […]

Substance | Peptide bound to an IgE antibody in serum in a patient-specific manner
E17: common 15-residue IgE-binding epitope sequence of polypeptide (E17), pyruvate kinase 3-derived (PGNRIFVDDGLISLI; VAR_SEQ 1..15 epitope) [Epitope E17] | bound to an IgE antibody in serum in a patient-specific manner
E24: common 15-residue IgE-binding epitope sequence of polypeptide (E24), arginine kinase-derived (LFDPIIEDYHVGFKQ; VAR_SEQ 1..15 epitope) [Epitope E24] | bound to an IgE antibody in serum in a patient-specific manner
E5: common 15-residue IgE-binding epitope sequence of polypeptide (E5), myosin heavy chain type 2-derived (GTMEELRDERLAKII; VAR_SEQ 1..15 epitope) [Epitope E5] | bound to an IgE antibody in serum in a patient-specific manner
E34: common 15-residue IgE-binding epitope sequence of polypeptide (E34), myosin heavy chain type 1-derived (VQVNPPKYEKCEDVS; VAR_SEQ 1..15 epitope) [Epitope E34] | bound to an IgE antibody in serum in a patient-specific manner
E21: common 15-residue IgE-binding epitope sequence of polypeptide (E21), troponin I-derived (MADEEAKKKQEEIDR; VAR_SEQ 1..15 epitope) [Epitope E21] | bound to an IgE antibody in serum in a patient-specific manner
E28: common 15-residue IgE-binding epitope sequence of polypeptide (E28), myosin heavy chain type 1-derived (RGYHIFYQLMCDQID; VAR_SEQ 1..15 epitope) [Epitope E28] | bound to an IgE antibody in serum in a patient-specific manner
E39: common 15-residue IgE-binding epitope sequence of polypeptide (E39), myosin heavy chain type 1-derived (VQKTNQDKATKDHQI; VAR_SEQ 1..15 epitope) [Epitope E39] | bound to an IgE antibody in serum in a patient-specific manner
E41: common 15-residue IgE-binding epitope sequence of polypeptide (E41), myosin heavy chain type 1-derived (MTQETVADIERQHKD; VAR_SEQ 1..15 epitope) [Epitope E41] | bound to an IgE antibody in serum in a patient-specific manner
E48: common 15-residue IgE-binding epitope sequence of polypeptide (E48), troponin I-derived (EEIDRKKAEVRKRLE; VAR_SEQ 1..15 epitope) [Epitope E48] | bound to an IgE antibody in serum in a patient-specific manner
E44: common 15-residue IgE-binding epitope sequence of polypeptide (E44), hemocyanin subunit L1-derived (VRIFAWPHLDNNGIK; VAR_SEQ 1..15 epitope) [Epitope E44] | bound to an IgE antibody in serum in a patient-specific manner
E46: common 15-residue IgE-binding epitope sequence of polypeptide (E46), phosphopyruvate hydratase-derived (TGVHEALEMRDGDKS; VAR_SEQ 1..15 epitope) [Epitope E46] | bound to an IgE antibody in serum in a patient-specific manner
E29: common 15-residue IgE-binding epitope sequence of polypeptide (E29), myosin heavy chain type 1-derived (QRYNILAAKEMLEAK; VAR_SEQ 1..15 epitope) [Epitope E29] | bound to an IgE antibody in serum in a patient-specific manner
E6: common 15-residue IgE-binding epitope sequence of polypeptide (E6), myosin heavy chain type 2-derived (KDHQIRNINDEISHQ; VAR_SEQ 1..15 epitope) [Epitope E6] | bound to an IgE antibody in serum in a patient-specific manner
E23: common 15-residue IgE-binding epitope sequence of polypeptide (E23), cyclophilin A-derived (SCFHRVIPNFMCQGG; VAR_SEQ 1..15 epitope) [Epitope E23] | bound to an IgE antibody in serum in a patient-specific manner
E26: common 15-residue IgE-binding epitope sequence of polypeptide (E26), myosin heavy chain type 1-derived (PDPDPTEYLFISREQ; VAR_SEQ 1..15 epitope) [Epitope E26] | bound to an IgE antibody in serum in a patient-specific manner
E40: common 15-residue IgE-binding epitope sequence of polypeptide (E40), myosin heavy chain type 1-derived (EISHQDEIINKVNKE; VAR_SEQ 1..15 epitope) [Epitope E40] | bound to an IgE antibody in serum in a patient-specific manner
E16: common 15-residue IgE-binding epitope sequence of polypeptide (E16), pyruvate kinase 3-derived (NVRKAAQKYSDKIGH; VAR_SEQ 1..15 epitope) [Epitope E16] | bound to an IgE antibody in serum in a patient-specific manner
E43: common 15-residue IgE-binding epitope sequence of polypeptide (E43), myosin heavy chain type 1-derived (EIDKRIQEKEEEFDA; VAR_SEQ 1..15 epitope) [Epitope E43] | bound to an IgE antibody in serum in a patient-specific manner
E7: common 15-residue IgE-binding epitope sequence of polypeptide (E7), myosin heavy chain type 2-derived (AKSAMDSLARDKALA; VAR_SEQ 1..15 epitope) [Epitope E7] | bound to an IgE antibody in serum in a patient-specific manner
E10: common 15-residue IgE-binding epitope sequence of polypeptide (E10), myosin heavy chain type 2-derived (HFRIKAVYEENLEHL; VAR_SEQ 1..15 epitope) [Epitope E10] | bound to an IgE antibody in serum in a patient-specific manner
E38: common 15-residue IgE-binding epitope sequence of polypeptide (E38), myosin heavy chain type 1-derived (LDKELYRCGKTKVFF; VAR_SEQ 1..15 epitope) [Epitope E38] | bound to an IgE antibody in serum in a patient-specific manner
E13: common 15-residue IgE-binding epitope sequence of polypeptide (E13), glycogen phosphorylase-derived (EWVVHLDQLTKLKPL; VAR_SEQ 1..15 epitope) [Epitope E13] | bound to an IgE antibody in serum in a patient-specific manner
E14: common 15-residue IgE-binding epitope sequence of polypeptide (E14), hemocyanin subunit L1-derived (ERGIDVLGDVIESSL; VAR_SEQ 1..15 epitope) [Epitope E14] | bound to an IgE antibody in serum in a patient-specific manner
